The values below are quoted from earlier work in patent US20110021626A1, “ENCAPSULATION OF VITAMIN C INTO WATER SOLUBLE DENDRIMERS” (CENTRE NATIONAL DE LA RECHERCHE SCIENTIFIQUE - CNRS, priority 2008, published 2011).

For this data set the following is noted: at 25° C. in water.

For `O=C1O[C@H]([C@@H](O)CO)C(O)=C1O` [ascorbic acid], the pKa is given as 4,11.
